Biological target: T1, FK506 binding protein 12 (FKBP12) (Homo sapiens, UniProt P42345+P62942)
T1 construct: gene FKBP1A; pAsh-FKBP12 co-transfected with phAG-mTOR in HeLa cells; with mTOR
Test: Fluoppi cell assay of FKBP12-mTOR ternary complex formation in HeLa cells
Type: cell-based

T1 sequence (P62942 2-108, other chains not shown): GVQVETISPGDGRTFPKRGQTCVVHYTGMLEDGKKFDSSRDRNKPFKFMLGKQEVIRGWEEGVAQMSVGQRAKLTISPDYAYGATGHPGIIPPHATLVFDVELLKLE

EC50: 1880 nM
Structure (SMILES): COC1CC(O)CC(=O)CC(=O)N2CCCCC2C(=O)OC(C(C)CC2CCC(O)C(OC)C2)CC(=O)C(C)C=C(C)C(O)C(OC)C(=O)C(C)CC(C)C=CC=CC=C1C (mixture of isomers) [compound 1, 1]

— PMC8113240 (Scientific Reports, 2021)
